Experimental data reported in patent publication US20260284011A1, “COMPOUNDS FOR RESTORING SUSCEPTIBILITY TO BETA-LACTAM ANTIBIOTICS” (UNIVERSITY OF NOTRE DAME DU LAC, priority 2023, published 2026).

Tests used:
MSSA and MRSA strains = test: MIC potentiation, groups of strains; format: cell-based, Staphylococcus aureus; conditions: all 40 tested strains
Description: Potentiation of Activities of/36-Lactam Antibiotics. Compound 4 was evaluated as an adjuvant for β-lactam antibiotics, per design principles.
MICs were determined by the microdilution broth method following the Clinical & Laboratory Standards Institute (CLSI) guidelines. […] Experiments were performed in triplicate in 96-well plates with 5×10^5 CFU·mL^−1 of bacteria. […] The MIC was the concentration for which bacterial growth was not observed.

BlaR = BlaR (Staphylococcus aureus, UniProt P18357); test: Live-cell fluorescent assay for BlaR inhibition (Venus reporter); format: cell-based, S. aureus NRS144pCN52RI-Venus; conditions: compound at 100 mg/L^−1; CBAP 10 mg·L^−1; fluorescence after 2 h
Description: Live-Cell Fluorescent Assay in Discovery and Mechanism of Action. We conceived of fluorescent constructs in the bla operon, for the purpose of screening (FIG. 2a). We removed the gene for the β-lactamase (blaZ) and put in its place individually the genes for the Green Fluorescent Protein (GFP), Venus (a yellow-fluorescent protein) or mCherry (a red-fluorescent protein) in the template plasmid pCN52. The three plasmids were named pCN52RI, pCN52RI-Venus and pCN52RI-mCherry, respectively. The genes for the fluorescent proteins were transcribed under the promoter of the blaZ gene and were regulated by the proteins BlaR and BlaI, as is the case for the wild-type bla operon.
We transformed separately S. aureus NRS144—a laboratory strain that accepts a foreign gene and harbors neither the bla nor the mec operons—with each of these plasmids. […] When induced, the fluorescent protein is produced and is detected (akin to expression of the resistance genes blaZ or mecA in typical MSSA and MRSA). […] The transformed strains were grown in tryptic soy broth medium for overnight culture and strain maintenance and incubated in cation-adjusted Mueller-Hinton broth medium for inhibitor screening in a 96-well microplate format. The culture without CBAP addition was the negative control. In order to select a desirable reporter construct, we compared the intensity of the fluorescence produced from each construct at the wavelengths given in FIG. 2a using the Cytation-5 multi-mode microplate reader. Among the three constructs, pCN52RI-Venus produced the best fluorescence intensity and pCN52RI-mCherry was the second best (FIG. 4).
The collection of the 100 compounds from the in-silico search was screened against S. aureus NRS144pCN52RI-Venus. The screening strategy was as follows. Bacteria grown to OD600 of 0.25 were exposed concurrently to CBAP (10 mg·L^−1) and the test compound (100 mg·L^−1). Fluorescence was recorded after two hours of incubation. OD600 values were also recorded to identify compounds with inherent antibacterial activity. Compound 1 (Chart 1) emerged—82% diminished fluorescence as an indication of the extent of BlaR inhibition—as a suitable template for structure elaboration. This effort led to the synthesis of several dozen benzimidazole and imidazole compounds. The progression of the iterative design is depicted in Chart 1 for four compounds, culminating in 4. […] The X-ray structures for the complexes of compounds 2 (non-covalent) and 4 (covalent) with the BlaR sensor domain are shown respectively in FIG. 2b (2.0 Å resolution) and FIG. 2c (1.97 Å resolution). Compound 4 makes a covalent bond with the catalytic Ser389 and creates a network of hydrogen bonds with the BlaR active site (FIG. 2c).
Fluorescent assay for screening of BlaR potential inhibitors. A 3-mL portion of lysogeny broth (LB) medium was inoculated with NRS144pCN52RI Venus from frozen stocks and grown overnight at 37° C. The overnight culture was then diluted 1:150 fold with fresh LB containing […] of erythromycin and incubated at 37° C. to an OD600 of 0.3, at which point fluorescence was induced by the addition of CBAP to a final concentration of 10 μg·mL^−1. The culture was aliquoted (99 L) into 96-well plate and 1 L of inhibitor solution (1 mg·mL^−1 in DMSO) was added to each well. Negative control (DMSO without CBAP) and positive control (CBAP without inhibitor) were included. The plate was incubated at 30° C. for 2 h with intermittent shaking. Fluorescence and OD600 measurements were taken by a Cytation-5 multimode microplate reader. Percent inhibition of BlaR and bacterial growth were calculated using absorbance unit (AU) and OD600 values of each sample entered into this formula: […]

Sequence of BlaR (P18357 whole entry): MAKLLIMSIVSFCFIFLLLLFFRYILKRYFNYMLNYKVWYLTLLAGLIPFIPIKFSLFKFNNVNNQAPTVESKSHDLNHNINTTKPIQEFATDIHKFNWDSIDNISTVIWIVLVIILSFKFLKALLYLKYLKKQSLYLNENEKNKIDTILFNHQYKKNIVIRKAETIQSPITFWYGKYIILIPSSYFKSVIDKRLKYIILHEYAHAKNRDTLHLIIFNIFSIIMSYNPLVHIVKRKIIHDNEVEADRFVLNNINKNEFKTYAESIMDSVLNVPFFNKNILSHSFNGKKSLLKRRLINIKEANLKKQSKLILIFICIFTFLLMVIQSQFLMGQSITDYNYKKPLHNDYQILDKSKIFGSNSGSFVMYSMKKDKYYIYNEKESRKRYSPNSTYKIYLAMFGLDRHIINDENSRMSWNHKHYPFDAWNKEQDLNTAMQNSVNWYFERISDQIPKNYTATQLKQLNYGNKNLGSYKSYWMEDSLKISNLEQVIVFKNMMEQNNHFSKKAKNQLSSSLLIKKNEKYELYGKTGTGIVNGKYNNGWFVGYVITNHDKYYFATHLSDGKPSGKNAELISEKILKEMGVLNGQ

N#Cc1ccc2nc(SCB(O)O)n(Cc3ccc(C(F)(F)F)cc3C(F)(F)F)c2c1 [Compound 4, (((1-(2,4-bis(trifluoro-methyl)benzyl)-6-cyano-1H-benzo[d]imidazol-2-yl)thio)methyl)boronic acid]
potentiation of the activity of MEM by 4 (MSSA and MRSA strains): lowering MICs to below resistant level | % Inhibition of BlaR (BlaR): 98%
